Test results taken from publication PMC11324770, “A novel in vitro high-content imaging assay for the prediction of drug-induced lung toxicity” (Archives of Toxicology, 2024).

Key:
occludin in A549 cells = test: High-content imaging of junctional occludin staining in A549 cells; format: cell-based; settings: for area of junctional staining present at the cell membrane compared to DMSO controls: A549, 24 h, concentration-dependent, Fig. 2 shows TNFα/TGFβ as a combination
Procedure: A549 (ATCC), an alveolar epithelial cell line, and CALU-3 (ATCC), an epithelial cell line, were cultured in Dulbecco’s modified Eagle’s medium (DMEM) supplemented with 10% foetal bovine serum (FBS). 16HBE bronchial epithelial cells, kindly provided by Carl Staples (University of Southampton), were cultured in DMEM supplemented with 10% FBS and 1% non-essential amino acids). All culture media materials were purchased from Thermo Fisher Scientific. For imaging experiments, cells were seeded at 10,000 cells per well in 96-well CellCarrier imaging plates (Perkin Elmer) and cultured for 72 h to allow tight junction formation. All experiments were carried out between passages 3 and 15.
All tested compounds were synthesized internally and provided in 100% DMSO. Compounds were diluted in appropriate media to a 9-point concentration range from 100 µM down to 15 nM with a final concentration of 1% DMSO. Cigarette smoke extract (CSE) was produced by passing smoke from 5 University of Kentucky research cigarettes with filters removed through PBS with an air pump at a rate 0.07 L/min. CSE was diluted in appropriate media to a concentration range of 12% to 0.01%. TNF-α and TGF-β (Thermo Fisher Scientific) were diluted in appropriate media to a concentration range of 50 ng/ml to 0.02 ng/ml. All treatments were for 24 h and terminated by removing media and fixing with 4% paraformaldehyde (PFA). Vehicle (1% DMSO) was included for each plate and all treatments were carried out in duplicate on each plate. All experiments were independently repeated at least 3 times.
Following treatment, cells were washed twice in PBS and fixed in 4% PFA for 20 min at room temperature and permeabilized using 0.5% Triton-X for 15 min at room temperature. Cells were then blocked using 5% goat serum in PBS at room temperature for 1 h. Primary antibodies were applied as per optimized conditions based on manufacturers recommended dilutions overnight at 4 °C. Cells were washed twice in PBS prior to application of secondary antibodies at a dilution of 1:5000 for 1 h at room temperature. Cells were washed twice with PBS and subsequently stained with a mixture of Hoechst and Cell Mask Deep Red at 1:1000 in PBS. Finally, cells were washed twice in PBS and either stored at 4 °C or imaged immediately. Plates were imaged using a MolecularDevices IXC. […] Cell viability was assessed through direct counts of nuclei.
Analysis modules were written using the custom module editor of MetaXpress version 6.5.4.532. […] This thickened outline mask was then applied to the cell mask image and the area of staining was quantified. […] To quantify the amount of occludin staining at the membrane, the final step of the module overlaid the thickened membrane mask with the thickened junction mask. […]

respiratory tract = system: respiratory tract; set-up: method as in printed; settings: ref not given, cited from earlier work

[Cl][Cd][Cl] [Cadmium chloride]
area of junctional staining present at the cell membrane compared to DMSO controls (occludin in A549 cells): significant decrease | IC50 (occludin in A549 cells; area of occludin staining normalized to cell number and DMSO, 24 h, 9-point range up to 100 µM, NA = no IC50 curve could be established): 3.7 µM | Comment (respiratory findings) (respiratory tract; earlier non-clinical or clinical findings): Pneumonitis and fibrosis | Respiratory safety risk (respiratory tract; earlier pivotal toxicology studies in pre-clinical species or clinic): Yes

TGF-β
area of junctional staining present at the cell membrane compared to DMSO controls (occludin in A549 cells): significant decrease

TNF-α
area of junctional staining present at the cell membrane compared to DMSO controls (occludin in A549 cells): significant decrease
